Entries after “also recorded” stand apart in the source; their conditions may differ.
Legend:
[1] = tested on: BrdU-positive cells in the hippocampus; assay: Histology: BrdU positive cells in hippocampus of aged mice; format: in vivo, C57Bl/6 mice
Description: For fluorescent microscopy, the following antibodies were used in the given concentrations: GFAP, 1:500, DAKO; Iba1, 1:1000, Wako; and BrdU, 1:500, AbCam. Antigen retrieval protocol was required for BrdU (2N HCl, 37 C, 30 min) prior to blocking. The appropriate fluorescent secondary antibodies were applied the next day at a concentration of 1:300 for one hour at room temperature. Prolong Gold Mounting Media was used to coverslip the slides. Images were acquired on a light microscope at 5× magnification.
Two-month-old or 18-month-old C57Bl/6 mice were dosed with either IgG antibody control by IP injection or Compound 1 subcutaneously by Alzet osmotic pump for either 2 or 4 weeks. During the last week of treatment, mice were subjected to behavior testing prior to perfusion on the last day of treatment. All mice received 5 consecutive days of BrdU injection at 150 mg/kg IP immediately prior to treatment start. […]

[2] = tested on: three-month-old C57 mice treated with LPS; assay: Open Field test (anxiety) in mice given daily LPS; format: in vivo; conditions: 3-month-old mice; daily LPS 0.5 mg/kg IP; 30 mg/kg PO BID, after 1 week
Description: Open Field is used to evaluate general locomotor activity and exploratory behavior in a novel environment. Mice are brought to the experimental room for at least 30 min for acclimation to the experimental room conditions (dim lighting) prior to testing. The testing arena consists of a 50 cm×50 cm square arena. Mice are placed in the center of an arena and tracked for 15 minutes. Time spent in the peripheral and centers zones is analyzed, along with rearing behavior. 70% ethanol is used to clean all surfaces between trials.
Three-month-old C57 mice were given daily doses of lipopolysaccharide (LPS) 0.5 mg/kg IP to induce inflammation and treated with Compound 1 for up to 4 weeks.
Treatment Groups: • Treatment Group 1, Vehicle treatment: 3-month-old C57 mice (n=10) received daily IP injection of LPS for 7 weeks and twice daily (BID) oral gavage (PO) treatment of vehicle solution for up to 4 weeks. • Treatment Group 2, Vehicle treatment and Oxazolone treatment: 3-month-old C57 mice (n=10) received daily IP injection of LPS for 7 weeks and twice daily (BID) oral gavage (PO) treatment of vehicle solution for up to 4 weeks. • Treatment Group 3, Compound 1 treatment and Oxazolone treatment: 3-month-old C57 mice (n=9) received daily IP injection of LPS for 7 weeks and twice daily (BID) oral gavage (PO) treatment of Compound 1, 30 mg/kg, for up to 4 weeks.

blood eosinophils = assay: Blood eosinophils in aged mice (FACS); format: in vivo, C57Bl/6 mice; conditions: 23-month-old mice, 30 mg/kg SQ BID 30 days, subset n=2, 5
Description: 200 uL of whole blood was collected during perfusion and shipped to Charles River Clinical Pathology Services (Shrewsbury, Mass.) for hematology analysis of eosinophil count by FACS (fluorescence activated cell sorter).
23-month-old C57Bl/6 mice were dosed with either vehicle control or Compound 1 subcutaneously twice daily for 30 days, and then sacrificed on the day of the last injection.
Treatment Groups: • Treatment Group 1a, Vehicle treatment: Aged C57Bl/6 mice (n=9), aged 23 months, received twice daily (BID) subcutaneous (SQ) treatment of vehicle solution for 30 days. • Treatment Group 3, Compound 1 treatment: Aged C57Bl/6 mice (n=18), aged 23 months, received twice daily (BID) subcutaneous (SQ) treatment of Compound 1, 30 mg/kg, for 30 days.

Cc1cc(C(=O)N(C)C)cc(NC(=O)[C@H]2CCC(=O)N2C2CCN(Cc3ccc(Cl)c(C)c3)CC2)n1 [Compound 1]
BrdU-positive cells in the hippocampus ([1]; 16.5-month-old mice, four-week dosing by pump): significantly increased the number of BrdU-positive cells
BrdU-positive cells in the hippocampus ([1]; 18-month-old mice, higher dosing for 2 weeks by pump): trend in increased BrdU-positive cells
anxiety in the Open Field [2]: strongly decreased the increased anxiety; also recorded: decreased the LPS-induced anxiety
blood eosinophils (percentage of WBC count) (blood eosinophils): strong trend towards decreased blood eosinophils; also recorded: decreased an endogenous age-related increase in blood eosinophils
